Measured values as given in US20020028938A1, “Prostaglandin endoperoxide H synthase biosynthesis inhibitors” (priority 1997, published 2002).

## CS(=O)(=O)c1ccc(-c2cnn(Cc3ccccc3)c(=O)c2-c2ccc3c(c2)COC3=O)cc1 [Example 319, 2-Benzyl-4-(1-oxo-1,3-dihydro-2-benzofuran-5-yl)-5-[4-(methylsulfonyl)phenyl]-3(2H)-pyridazinone]
  melting point: > 250 °C

## COc1c(-c2ccc(S(C)(=O)=O)cc2)cnn(-c2cccc(Cl)c2)c1=O [Example 331, 2-(3-Chlorophenyl)-4-methoxy-5-[4-(methylsulfonyl)phenyl]-3(2H)-pyridazinone]
  melting point: 112 to 114 °C

## CS(=O)(=O)c1ccc(-c2cnn(-c3ccc(F)cc3)c(=O)c2N2CCCC2)cc1 [Example 356, 2-(4-Fluorophenyl)-4-(1-pyrrolidinyl)-5-[4-(methylsulfonyl)phenyl]-3(2H)-pyridazinone]
  melting point: 192 to 195 °C

## Cc1ccc(Sc2c(-c3ccc(S(C)(=O)=O)cc3)cnn(-c3cccc(Cl)c3)c2=O)cc1 [Example 357, 2-(3-Chlorophenyl)-4-(4-methylphenylthio)-5-[4-(methylsulfonyl)phenyl]-3(2H)-pyridazinone]
  melting point: 178 °C

## CS(=O)(=O)c1ccc(-c2cnn(-c3cccc(Cl)c3)c(=O)c2SCc2ccccc2)cc1 [Example 359, 2-(3-Chlorophenyl)-4-(phenylmethylthio)-5-[4-(methylsulfonyl)phenyl]-3(2H)-pyridazinone]
  melting point: 142 to 145 °C

## CS(=O)(=O)c1ccc(-c2cnn(-c3cccc(Cl)c3)c(=O)c2SCc2ccco2)cc1 [Example 360, 2-(3-Chlorophenyl)-4-(2-furylmethylthio)-5-[4-(methylsulfonyl)phenyl]-3(2H)-pyridazinone]
  melting point: 140 to 149 °C

## CS(=O)(=O)c1ccc(-c2cnn(-c3ccc(F)cc3)c(=O)c2Cc2ccc(F)cc2)cc1 [Example 377, 2-(4-Fluorophenyl)-4-(4-fluorobenzyl)-5-[4-(methylsulfonyl)phenyl]-3(2H)-pyridazinone]
  melting point: 175 to 177 °C

## CC(C)COc1c(-c2ccc(S(N)(=O)=O)c(F)c2)cnn(CC(F)(F)F)c1=O [Example 382, 2-(2,2,2-Trifluoroethyl)-4-(2-methylpropoxy)-5-[3-fluoro-4-(aminosulfonyl)phenyl]-3(2H)-pyridazinone]
  melting point: 163 to 164 °C

## NS(=O)(=O)c1ccc(-c2cnn(Cc3ccccc3)c(=O)c2Cc2ccc(F)cc2)cc1 [Example 383, 2-Benzyl-4-(4-fluorobenzyl)-5-[4-(aminosulfonyl)phenyl]-3(2H)-pyridazinone]
  melting point: 120 to 123 °C

## Cc1cc(-c2c(-c3ccc(S(N)(=O)=O)cc3)cnn(-c3ccc(F)c(Cl)c3)c2=O)ccc1F [Example 389, 2-(3-Chloro-4-fluorophenyl)-4-(4-fluoro-3-methylphenyl)-5-[4-(aminosulfonyl)phenyl]-3(2H)-pyridazinone]
  melting point: 243 to 245 °C

## CS(=O)(=O)c1ccc(-c2cnn(-c3ccc(F)cc3)c(=O)c2OCC2CC2)cc1 [Example 416, 2-(4-Fluorophenyl)-4-cyclopropylmethoxy-5-[4-(methylsulfonyl)phenyl]-3(2H)-pyridazinone]
  melting point: 166 to 167 °C

## CS(=O)(=O)c1ccc(-c2cnn(-c3ccc(F)cc3)c(=O)c2OCCC2CC2)cc1 [Example 417, 2-(4-Fluorophenyl)-4-(2-cyclopropyl-1-ethoxy)-5-[4-(methylsulfonyl)phenyl]-3(2H)-pyridazinone]
  melting point: 111 to 117 °C

## CC(C)CCC(C)Oc1c(-c2ccc(S(C)(=O)=O)cc2)cnn(-c2ccc(F)cc2)c1=O (centres unmarked) [Example 429, 2-(4-Fluorophenyl)-4-(5-methyl-2-hexyloxy)-5-[4-(methylsulfonyl)phenyl]-3(2H)-pyridazinone]
  melting point: 102 to 103 °C

## CCCC(CCOc1c(-c2ccc(S(C)(=O)=O)cc2)cnn(-c2ccc(F)cc2)c1=O)SC (centres unmarked) [Example 433, 2-(4-Fluorophenyl)-4-(3-methylthio-1-hexyloxy)-5-[4-(methylsulfonyl)phenyl]-3(2H)-pyridazinone]
  melting point: 90 to 92 °C

## CC(CCOc1c(-c2ccc(S(C)(=O)=O)cc2)cnn(-c2ccc(F)c(F)c2)c1=O)C(F)(F)F (centres unmarked) [Example 435, 2-(3,4-Difluorophenyl)-4-(3-trifluoromethyl-1-butoxy)-5-[4-(methylsulfonyl)phenyl]-3(2H)-pyridazinone]
  melting point: 126 to 128 °C

## CCOc1c(-c2ccc(S(C)(=O)=O)cc2)cnn(-c2ccc(F)c(F)c2)c1=O [Example 436, 2-(3,4-Difluorophenyl)-4-ethoxy-5-[4-(methylsulfonyl)phenyl]-3(2H)-pyridazinone]
  melting point: 121 to 123 °C

## CS(=O)(=O)c1ccc(-c2cnn(-c3ccc(F)c(F)c3)c(=O)c2OCCC2CCCC2)cc1 [Example 439, 2-(3,4-Difluorophenyl)-4-(2-cyclopentyl-1-ethoxy)-5-[4-(methylsulfonyl)phenyl]-3(2H)-pyridazinone]
  melting point: 100 to 101 °C

## CS(=O)(=O)c1ccc(-c2cnn(CC(O)c3ccccc3)c(=O)c2-c2ccc(F)cc2)cc1 (centres unmarked) [Example 441, 2-(2-Hydroxy-2-phenylethyl)-4-(4-fluorophenyl)-5-[4-(methylsulfonyl)phenyl]-3(2H)-pyridazinone]
  melting point: 205 to 207 °C

## COc1c(-c2ccc(S(C)(=O)=O)cc2)cnn(-c2ccc(F)c(F)c2)c1=O [Example 453, 2-(3,4-Difluorophenyl)-4-methoxy-5-[4-(methylsulfonyl)phenyl]-3(2H)-pyridazinone]
  melting point: 113 to 115 °C

## CS(=O)(=O)c1ccc(-c2cnn(-c3ccc(F)cc3)c(=O)c2-c2cccc(F)c2)cc1 [Example 458, 2-(4-Fluorophenyl)-4-(3-fluorophenyl)-5-[4-(methylsulfonyl)phenyl]-3(2H)-pyridazinone]
  melting point: 199 to 201 °C

## CON=C(C)COc1c(-c2ccc(S(C)(=O)=O)cc2)cnn(-c2ccc(F)c(F)c2)c1=O [Example 461, 2-(3,4-Difluorophenyl)-4-[2-(methoxyimino)-1-propoxy]-5-[4-(methylsulfonyl)phenyl]-3(2H)-pyridazinone]
  melting point: 143 to 145 °C

## CC(=O)CCOc1c(-c2ccc(S(C)(=O)=O)cc2)cnn(-c2ccc(F)cc2)c1=O [Example 468, 2-(4-Fluorophenyl)-4-(3-oxo-1-butoxy)-5-[4-(methylsulfonyl)phenyl]-3(2H)-pyridazinone]
  melting point: 133 to 136 °C

## CC(C)(O)CCOc1c(-c2ccc(S(N)(=O)=O)cc2)cnn(-c2ccc(F)cc2)c1=O [Example 470, 2-(4-Fluorophenyl)-4-(3-hydroxy-3-methyl-1-butoxy)-5-[4-(aminosulfonyl)phenyl]-3(2H)-pyridazinone]
  melting point: 163 to 164 °C

## CC(C)(O)CCOc1c(-c2ccc(S(N)(=O)=O)cc2)cnn(-c2ccc(F)c(F)c2)c1=O [Example 472, 2-(3,4-Difluorophenyl)-4-(3-hydroxy-3-methyl-1-butoxy)-5-[4-(aminosulfonyl)phenyl]-3(2H)-pyridazinone]
  melting point: 181 °C

## CC(C)(O)CCOc1c(-c2ccc(S(C)(=O)=O)cc2)cnn(-c2ccc(F)c(Cl)c2)c1=O [Example 473, 2-(3-Chloro-4-fluorophenyl)-4-(3-hydroxy-3-methyl-1-butoxy)-5-[4-(methylsulfonyl)phenyl]-3(2H)-pyridazinone]
  melting point: 108 to 110 °C

## CC(C)(O)CCOc1c(-c2ccc(S(N)(=O)=O)cc2)cnn(-c2ccc(F)c(Cl)c2)c1=O [Example 474, 2-(3-Chloro-4-fluorophenyl)-4-(3-hydroxy-3-methyl-1-butoxy)-5-[4-(aminosulfonyl)phenyl]-3(2H)-pyridazinone]
  melting point: 59 to 62 °C

## CC(C)(O)COc1c(-c2ccc(S(C)(=O)=O)cc2)cnn(-c2ccc(F)c(Cl)c2)c1=O [Example 479, 2-(3-Chloro-4-fluorophenyl)-4-(2-hydroxy-2-methyl-1-propoxy)-5-[4-(methylsulfonyl)phenyl]-3(2H)-pyridazinone]
  melting point: 122 to 124 °C

## CC(C)(O)COc1c(-c2ccc(S(N)(=O)=O)cc2)cnn(-c2ccc(F)c(Cl)c2)c1=O [Example 480, 2-(3-Chloro-4-fluorophenyl)-4-(2-hydroxy-2-methyl-1-propoxy)-5-[4-(aminosulfonyl)phenyl]-3(2H)-pyridazinone]
  melting point: 176 to 178 °C

## CC(C)(CO)COc1c(-c2ccc(S(C)(=O)=O)cc2)cnn(-c2ccc(F)c(F)c2)c1=O [Example 510, 2-(3,4-Difluorophenyl)-4-(3-hydroxy-2,2-dimethyl-1-propoxy)-5-[4-(methylsulfonyl)phenyl]-3(2H)-pyridazinone]
  melting point: 161 to 162 °C

## CC(C)(O)CCOc1c(-c2ccc(S(C)(=O)=O)cc2)cnn(-c2ccc(Cl)c(Cl)c2)c1=O [Example 532, 2-(3,4-Dichlorophenyl)-4-(3-hydroxy-3-methyl-1-butoxy)-5-[4-(methylsulfonyl)phenyl]-3(2H)-pyridazinone]
  melting point: 118 to 120 °C

## CC(C)COc1c(-c2ccc(S(C)(=O)=O)cc2)cnn(-c2ccc(F)c(Cl)c2)c1=O [Example 537, 2-(3-Chloro-4-fluorophenyl)-4-(2-methyl-1-propoxy)-5-[4-(methylsulfonyl)phenyl]-3(2H)-pyridazinone]
  melting point: 116 to 120 °C

## CC(C)CCOc1c(-c2ccc(S(C)(=O)=O)cc2)cnn(-c2ccc(F)c(Cl)c2)c1=O [Example 538, 2-(3-Chloro-4-fluorophenyl)-4-(3-methyl-1-butoxy)-5-[4-(methylsulfonyl)phenyl]-3(2H)-pyridazinone]
  melting point: 148 to 152 °C

## CC(C)COc1c(-c2ccc(S(C)(=O)=O)cc2)cnn(-c2ccc(Cl)c(Cl)c2)c1=O [Example 539, 2-(3,4-Dichlorophenyl)-4-(2-methyl-1-propoxy)-5-[4-(methylsulfonyl)phenyl]-3(2H)-pyridazinone]
  melting point: 127 to 129 °C

## CC(C)CCOc1c(-c2ccc(S(C)(=O)=O)cc2)cnn(-c2ccc(Cl)c(Cl)c2)c1=O [Example 540, 2-(3,4-Dichlorophenyl)-4-(3-methyl-1-butoxy)-5-[4-(methylsulfonyl)phenyl]-3(2H)-pyridazinone]
  melting point: 130 to 134 °C

## CS(=O)(=O)c1ccc(-c2cnn(-c3ccc(F)c(F)c3)c(=O)c2OCCCCO)cc1 [Example 541, 2-(3,4-Difluorophenyl)-4-(4-hydroxy-1-butoxy)-5-[4-(methylsulfonyl)phenyl]-3(2H)-pyridazinone]
  melting point: 110 to 113 °C
